Laboratory results published in a melting point compilation (Tetko et al.; mined from patent text by program, amines drawn as free bases though some values may be those of a salt).

SMILES	melting point [°C]
O=C1CCC(N2Cc3cc(CNC(=O)Nc4cccc(Cl)c4)ccc3C2=O)C(=O)N1 (stereo not drawn)	215 to 217
C=Cc1cn(-c2c(Cl)cc(C(F)(F)F)cc2Cl)c2ccccc12	85 to 87
CCc1cc(Cc2cc(CC)c(N)c(C)c2Cl)c(Cl)c(C)c1N	115 to 117
CCOC(=O)c1cc2cc(OCSN(C)C)ccc2oc1=O	157 to 160
[N-]=[N+]=NC1(CO)OC(n2ccc(=O)[nH]c2=O)C(O)C1O (stereo not drawn)	86 to 93
COc1cc(C=CC(=O)Nc2cnc3c(C)cc(C)cc3c2-c2ccccc2Cl)cc(OC)c1OC(C)=O	152 to 154
Cc1nc2cccc(N)c2c(=O)n1[C@@]1(C)CCC(=O)NC1=O	295 to 297
NC(=O)CN(N=O)N1CCOCC1	134 to 136
O=C(O)c1cnc2n(c1=O)CCc1cc(O)c(O)cc1-2	308 to 314
CCC1(C)NC(=O)c2ccccc2O1 (stereo not drawn)	76 to 78
Nc1nc2c(s1)CC(N1CCN(c3ccccn3)CC1)CC2 (single isomer, unassigned; (-))	230 to 232
C=C(C)c1ccncc1-c1c(O)cc(C(C)C(C)CCCCC)cc1O (stereo not drawn)	128 to 129
NS(=O)(=O)c1ccc(-c2cnn(C3CC=CCC3)c(=O)c2-c2ccc(F)cc2)cc1 (stereo not drawn)	206 to 208
CN=C1SC(=NOC(=O)NC)C(C)(C)S1	68 to 70
CC(C)CCCC(C)C1CCC2C3CC=C4CC(NCCCNC(=O)CCCCCNc5ccc([N+](=O)[O-])c6nonc56)CCC4(C)C3CCC12C (stereo not drawn)	78 to 80
CCC(C)Nc1nc(-c2cc(OC)c(OC)c(OC)c2)nc2sc(C#N)c(C)c12 (stereo not drawn)	91 to 93
COC(=O)C(=O)N1C(=O)[C@@H](NC(=O)OC(C)(C)C)[C@@H]1OC(C)=O	144 to 146

More lines, now with the values ahead:

melting point [°C]	SMILES
203 to 204	CCOc1cc2cc(CO)cc(-c3ccnc(-n4nc(-c5ccccc5)c5ccccc5c4=O)c3)c2cc1OCC
55 to 60	COC(=O)[C@H](Cc1ccc(OCCc2nc(-c3ccccc3)oc2C)cc1)Nc1ccccc1C(=O)c1ccccc1
230	Cn1cncc1C(O)(c1ccc(Cl)nc1)c1ccc2noc(-c3cccc(Cl)c3)c2c1 (stereo not drawn)
202 to 203	O=C1CCCc2ccc(OCCCCN3CCN(c4cccc5ccc(F)cc45)CC3)nc2N1
145 to 147	CN(C)C(=O)N(O)Cc1cc2ccccc2s1
190 to 191	CCCCc1nc2c(N)nc3cccnc3c2n1CCCCN1CC=Cc2cc(C(N)=O)ccc21
100	CC(c1ccccc1)N1c2ccccc2Oc2ccccc21 (stereo not drawn)
245 to 246	COc1cccc2c(Nc3ccccc3)nc(Cl)nc12
156 to 157	CN1CCC(C)(O)c2cccc(CSc3nc4ccccc4[nH]3)c21 (stereo not drawn)
133 to 135	O=C1OC(Cl)(c2ccc(Cl)cc2)c2ccccc21 (stereo not drawn)
254 to 256	NC(=O)c1ccc2[nH]cc(CCN3C(=O)c4ccccc4C3=O)c2c1
149 to 150	Cn1c(=O)n(Cc2ccccc2)c(=O)c2cc(I)ccc21
116 to 117	CC(C)Oc1nc(-c2ccc(Cl)cc2)c(CCC(=O)O)o1
122 to 124	CC(C)(c1ccccc1)c1cccc(S(=O)(=O)NC(CCCNC(=N)N)C(=O)O)c1 (stereo not drawn)
93 to 95	Brc1ccc(Cn2cnc3ccccc32)cc1
91 to 93	CCCCCCCCCCN(OCc1ccccc1)C(=O)Nc1c(C(C)C)cccc1C(C)C
148 to 149	CCCN1CC(c2cccc(Cl)c2)=C(c2ccc(S(C)(=O)=O)cc2)C1=O
220 to 222	COn1c(C2CCCCC2)nc2c(N)nc3ccccc3c21
195 to 196	CS(=O)(=O)c1ccc(-c2oc3ccccc3c(=O)c2-c2cccc(Cl)c2)cc1
165 to 166	C(=C\c1nc(COc2ccc(CCn3ccnc3)cc2)co1)/c1ccccc1
146 to 147	CC(C)(C)OC(=O)CC1=CCCCC1n1nc(-c2c(-c3ccccc3)nn3ccccc23)ccc1=O (stereo not drawn)
